Source: patent publication US9856480B2, “Dnazyme for silencing the expression of EGFR” (DCB-USA LLC, priority 2013, dated 2018)
Strand notation (5' to 3'): a small letter for the sugar, then the base; units joined by * are phosphorothioate-linked, units joined directly phosphodiester-linked; [ ] holds rarer units or linkages, { } end groups; capitals alone tell only the bases. d = 2'-deoxy (DNA)

Legend:
Format in all cases: cell-based, human
[1] = test system: CL97 cells; assay: Apoptosis assay (annexin V and PI, flow cytometry); settings: 100 nM, 48 h
Description: (§1) H1975 or CL97 was seeded onto 10-cm dish and cultured overnight. Then, cells were separately treated with 100 nM DzControl or DzT790M-1 with lipofectamine 2000 (Invitrogen). After 48 h, cells were collected, double stained by annexin V and PI, and analyzed by flow cytometry following the protocol of Dead cell apoptosis kit from manufacturer (Invitrogen).

[2] = test system: H1975 cells; assay: Apoptosis assay (annexin V and PI, flow cytometry); settings: 100 nM, 48 h
Description: as §1

[3] = test system: wild-type EGFR mRNA; assay: Quantitative real-time PCR of EGFR mRNA knockdown; settings: A549 cells; 50, 100, or 150 nM; 48 h
Description: A549, CL1-5, H1975, or CL97 was seeded onto 6-well at 3×10^5 cells/well and cultured overnight. Then, cells were separately treated with 100 nM DzControl or DzT790M-1 with lipofectamine 2000 (Invitrogen). After 48 h, total mRNA were extracted from DNAzyme-treated cells by Mestrisol following manufacturer's protocol. cDNA were synthesized by using RT III kit with random hexamers as primers (Invitrogen). The PCR primers were synthesized by Genomics BioSci & Tech (Taipei, Taiwan). The sequences of PCR primers are listed as follows: […]
The parameters for PCR were: 95° C. for 10 min, then 25 cycles of PCR at 95° C. for 30 s, 60° C. for 30 s, and 72° C. for 60 s. 3% agarose gels were used for electrophoresis of PCR products. The intensity of bands were quantified by Image J. Quantitative RT-PCR was performed on 40 ng total mRNA with the LightCycler 480 system (Roche). The PCR mix contained 5 μl of 2× Probe Master mix, 100 nM of UPL probe (Roche Diagnostics, Penzberg, Germany), 200 nM of forward primer and reverse primer, 0.1 ul RNAseout (Invitrogen), and 0.025 ul RTIII enzyme (Invitrogen) in a total volume of 10 μl. PCR parameters were as follows: 50° C. for 40 min, then 45 cycles of PCR at 95° C. for 10 s, 60° C. for 10 s, and 72° C. for 2 s. Data were analyzed by LC480 software (Roche Diagnostics, Penzberg, Germany). The relative amount of EGFR mRNA was normalized to ACTB mRNA. The sequences of PCR primers are as follows: […]
To examine the allele selectivity of DzT790M-1, EGFR mRNA knockdown efficiency was detected in two cell lines harboring wild-type EGFR (A549, CL1-5) and two cell lines containing EGFR T790M mutation (H1975, CL97). A549, CL1-5, H1975, or CL97 was seeded onto 6-well at 3×10^5 cells/well and cultured overnight. […]
Then, A549 and PC9 cells were separately treated with 50, 100, or 150 nM control DNAzyme or DzEGFR—ΔE746-A750 with Lipofectamine 2000 for 48 h. […] Quantitative RT-PCR was performed on 40 ng total mRNA with the LightCycler 480 system (Roche). […] Data were analyzed by LC480 software (Roche Diagnostics). […]

[4] = test system: EGFR E746-A750 deletion mRNA; assay: Quantitative RT-PCR of EGFR mRNA in PC9 cells; settings: 50, 100, or 150 nM, 48 h, DzControl-treated group as 100% expression
Description: Then, A549 and PC9 cells were separately treated with 50, 100, or 150 nM control DNAzyme or DzEGFR—ΔE746-A750 with Lipofectamine 2000 for 48 h. A549 and H1975 cells were separately treated with 100 nM control DNAzyme or different DzL858Rs with Lipofectamine 2000 for 48 h. RNA purification was done by conventional TRIzol® (Invitrogen Corp., Grand Island, N.Y.) method following manufacturer's protocol. Quantitative RT-PCR was performed on 40 ng total mRNA with the LightCycler 480 system (Roche). The PCR mix contained 5 μl of 2× ProbeMaster mix, 100 nM of UPL probe (Roche Diagnostics, Penzberg, Germany) and 200 nM of primer (each) in a total volume of 10 μl. The PCR conditions were 95° C. for 10 min, followed by 60 cycles at 95° C. for 10 s, 60° C. for 10 s, and 72° C. for 2 s. Data were analyzed by LC480 software (Roche Diagnostics). The relative amount of EGFR mRNA was normalized to ACTB mRNA. The sequences of PCR primers are as follows: […]

[5] = test system: A549 cells (wild type EGFR); assay: Cell proliferation (MTT); settings: 150 nM of DNAzyme, 48 h
Description: (§2) Then, cells were separately treated with 50, 100, or 150 nM control DNAzyme or DzEGFR—ΔE746-A750 with Lipofectamine 2000 for 48 h.

[6] = test system: PC9 cells (E746-A750 deletion EGFR); assay: Cell proliferation (MTT); settings: 48 h, DzControl-treated group as 0% death
Description: as §2

[7] = test system: wild-type EGFR; assay: Western immunoblotting of EGFR expression and downstream signaling in wild-type EGFR cell lines; settings: A549 and CL1-5 cells, 100 nM
Description: A549, CL1-5, H1975, or CL97 was seeded onto 6-well at 3×10^5 cells/well and cultured overnight. Then, cells were separately treated with 100 nM DzControl or DzT790M-1 with lipofectamine 2000 (Invitrogen). The transfected A549 and CL1-5 cells were serum-starved for 24 h and treated with 100 ng/ml of EGF at 37° C. for 15 min. 72 h after transfection, cell were collected for analysis. Cells were washed twice by ice-cold PBS and then total protein was extracted by RIPA buffer with protease inhibitor (Roche). 50 μg of total protein from the supernatants were boiled for 5 min at 95° C. The samples were resolved on 10% SDS-PAGE gel and transferred onto nitrocellulose membranes. EGFR expression and downstream signaling were detected by using primary antibodies specific to human pEGFR(Y1068) (Cell signaling), tEGFR (Santa Cruz), pSTAT3 (Y705) (Cell signaling), tSTAT3 (Cell signaling), pAKT (5473)(Cell signaling), tAKT (Santa Cruz), pERK (T202/Y204) (Cell signaling), tERK (Santa Cruz), and cleaved PARP (Cell signaling) at 1:1000 dilution and β-actin (Santa Cruz) at 1:10000 dilution, respectively. Secondary antibodies against rabbit IgG or mouse IgG was used at 1:5000 dilution. Protein bands on membrane were visualized by exposure to the chemiluminescence substrate.
EGFR belongs to receptor tyrosine kinases. The binding of its extracellular ligands triggers receptor dimerization, tyrosine residues phosphorylation, and downstream signaling activation including signal transducer and activator of transcription 3 (STAT3), Akt, extracellular signal regulated kinases (ERK), and others. To examine the effects of DzT790M on protein expression level of EGFR and its downstream signaling, western immunoblotting was performed on DzT790M transfected cells. A549, CL1-5, H1975, or CL97 was seeded onto 6-well at 3×10^5 cells/well and cultured overnight. Then, cells were separately treated with 100 nM DzControl or DzT790M-1 with lipofectamine 2000 (Invitrogen). The transfected A549 and CL1-5 cells were serum-starved for 24 h and treated with 100 ng/ml of EGF at 37° C. for 15 min. 72 h after transfection, cell were collected for analysis. Cells were washed twice by ice-cold PBS and then total protein was extracted by RIPA buffer with protease inhibitor (Roche). […] Also, activation of downstream STAT3, AKT, and ERK signaling after EGF treatment were not inhibited by DzT790M-1 or DzT790M-2 transfection.
CL1-5 (EGFR wild-type) or H1975 (EGFR T790M) were seeded onto 6-well at 3×10^5 cells/well and cultured overnight. […] The transfected CL1-5 cells were serum-starved for 24 h and treated with 100 ng/ml of EGF at 37° C. for 15 min. 72 h after transfection, cells were collected for western blotting analysis following the above mentioned procedure. […]

“DzControl: control DNAzyme not complementary to any mRNA in human cells: CATCGGAGGCTAGCTACAACGAGACAGCTG (DNA dC*dAdTdCdGdGdAdGdGdCdTdAdGdCdTdAdCdAdAdCdGdAdGdAdCdAdGdCdT*dG; further chemistry not fully specified) [reference compound]” was tested, and the “percentage of apoptotic cells in whole cell population” value [1] was 5.2%, the “percentage of dead cells in whole cell population” value [1] was 17% and the apoptotic cells [2] was 3.6%. The “dead cells (annexin V and PI double positive)” value [2] was 12.4%.

With “DzEGFR—ΔE746-A750: DNAzyme against EGFR E746-A750 deletion: GGAGATGTGTCAGCTGACTCGAATGATAGCGAC (DNA, backbone and methylation of C not given here)” the “binding and action on wild type EGFR” value [3] was “did not bind and act”, the “mutant EGFR expression” value [4] was “suppressed” and the “viability of A549 cells affected” value [5] was 20%. For the same substance, the “death of PC9 cells” value [6] was 60%.

For “DzT790M-2: 10-23 DNAzyme against EGFR T790M mRNA, arms 8/8: GAGCTGCAGGCTAGCTACAACGAGATGAGCT (DNA, backbone and methylation of C not given here)”, the “activation of downstream STAT3, AKT, and ERK signaling after EGF treatment” value ([7]; 100 ng/ml EGF 15 min) was “not inhibited” and the “protein level of EGFR compared to DzControl group” value ([7]; 72 h after transfection) was “did not decreased”.
